These results are taken from PubChem BioAssay AID1259407 (Chemical Carcinogenesis Research Information System (CCRIS), 2018).

Structures are written as SMILES. Active and inactive are the calls of the source. No rule for the calls is given here.

The data set relates to CCRIS mutagenicity, Ames/micronucleus/aberration tests. In words: CCRIS mutagenicity studies.
Where [1] appears, read: Test System: AMES SALMONELLA TYPHIMURIUM, Strain/Indicator: TA100, Metabolic Activation: S-9, Method: STANDARD PLATE.
Setting [2] is: Test System: AMES SALMONELLA TYPHIMURIUM, Strain/Indicator: TA98, Metabolic Activation: NONE, Method: STANDARD PLATE.
The mark [3] stands for this setting: Test System: AMES SALMONELLA TYPHIMURIUM, Strain/Indicator: TA100, Metabolic Activation: NONE, Method: STANDARD PLATE.

On to `CCCCN(CCCC)N=O`, for which the mutagenic call (Test System: AMES SALMONELLA TYPHIMURIUM, Strain/Indicator: TA100, Metabolic Activation: MOUSE, INTACT UROTHELIAL CELLS, Method: FLUCTUATION TEST) is “active; positive”; the mutagenic call (Test System: AMES SALMONELLA TYPHIMURIUM, Strain/Indicator: TA100, Metabolic Activation: RAT, INTACT UROTHELIAL CELLS, Method: FLUCTUATION TEST) was “active; positive”; the mutagenic call (Test System: AMES SALMONELLA TYPHIMURIUM, Strain/Indicator: TA100, Metabolic Activation: RAT, LIVER, S-9, AROCLOR 1254, Method: PREINCUBATION) is “active; positive”; the mutagenic call (Test System: AMES SALMONELLA TYPHIMURIUM, Strain/Indicator: TA100, Metabolic Activation: RAT, LIVER, S-9, KC500 OR PHENOBARBITAL, Method: LIQUID SUSPENSION) is “active; positive”; the mutagenic call (Test System: AMES SALMONELLA TYPHIMURIUM, Strain/Indicator: TA104, Metabolic Activation: RAT, LIVER, S-9, AROCLOR 1254, Method: PREINCUBATION) is “active; positive”; the mutagenic call (Test System: AMES SALMONELLA TYPHIMURIUM, Strain/Indicator: TA1530, Metabolic Activation: RAT, LIVER, S-9, Method: STANDARD PLATE) is “active; positive”. The mutagenic call was “inactive; negative” (Test System: AMES SALMONELLA TYPHIMURIUM, Strain/Indicator: TA1535, Metabolic Activation: NONE, Method: PREINCUBATION); “inactive; negative” (Test System: AMES SALMONELLA TYPHIMURIUM, Strain/Indicator: TA1535, Metabolic Activation: RAT, LIVER, HEPATOCYTES, Method: PREINCUBATION); “active; positive” (Test System: AMES SALMONELLA TYPHIMURIUM, Strain/Indicator: TA1535, Metabolic Activation: RAT, LIVER, MICROSOMES, KANECHLOR 500, Method: PREINCUBATION); “active; positive” (Test System: AMES SALMONELLA TYPHIMURIUM, Strain/Indicator: TA1535, Metabolic Activation: RAT, LIVER, S-9, AROCLOR 1254, Method: PREINCUBATION); “active; positive” (Test System: AMES SALMONELLA TYPHIMURIUM, Strain/Indicator: TA1535, Metabolic Activation: RAT, LIVER, S-9, AROCLOR, Method: PREINCUBATION); “active; positive” (Test System: AMES SALMONELLA TYPHIMURIUM, Strain/Indicator: TA1535, Metabolic Activation: RAT, LIVER, S-9, SODIUM PHENOBARBITONE, Method: PREINCUBATION). For the same compound, the mutagenic call was “inactive; negative” (Test System: AMES SALMONELLA TYPHIMURIUM, Strain/Indicator: TA1535, Metabolic Activation: RAT, LIVER, S-9, Method: PREINCUBATION); “inactive; negative” (Test System: AMES SALMONELLA TYPHIMURIUM, Strain/Indicator: TA1535ER, Metabolic Activation: NONE, Method: STANDARD PLATE); “active; positive” (Test System: AMES SALMONELLA TYPHIMURIUM, Strain/Indicator: TA1975, Metabolic Activation: RAT, LIVER, S-9, AROCLOR 1254, Method: PREINCUBATION); “active; positive” (Test System: AMES SALMONELLA TYPHIMURIUM, Strain/Indicator: YG7104ER, Metabolic Activation: NONE, Method: STANDARD PLATE); “active; positive” (Test System: AMES SALMONELLA TYPHIMURIUM, Strain/Indicator: YG7108ER, Metabolic Activation: NONE, Method: STANDARD PLATE); “active; positive” (Test System: CHINESE HAMSTER V-79, Strain/Indicator: V-79/8-AZAGUANINE, Metabolic Activation: RAT, LIVER, S-15, PHENOBARBITAL, Method: STANDARD PLATE). Moreover, the mutagenic call runs as follows: (Test System: CHINESE HAMSTER V-79, Strain/Indicator: V-79/OUABAIN, Metabolic Activation: HAMSTER, HEPATOCYTES, Method: CELL-MEDIATED) “active; positive”; (Test System: E. COLI, Strain/Indicator: WP2 (HCR), Metabolic Activation: RAT, LIVER, MICROSOMES, KANECHLOR 500, Method: PREINCUBATION) “active; positive”; (Test System: E. COLI, Strain/Indicator: WP2 (HCR-), Metabolic Activation: RAT, LIVER, MICROSOMES, PHENOBARBITAL) “active; positive”.

In the case of `c1ccc2cc3c(cc2c1)-c1cccc2cccc-3c12`, the mutagenic call is, setting by setting: (Test System: AMES SALMONELLA TYPHIMURIUM, Strain/Indicator: TA98, Metabolic Activation: HAMSTER, LIVER, S-9, AROCLOR 1254 (30%), Method: PREINCUBATION) “active; positive”; (Test System: AMES SALMONELLA TYPHIMURIUM, Strain/Indicator: TA98, Metabolic Activation: NONE, Method: PREINCUBATION) “inactive; negative”; (Test System: AMES SALMONELLA TYPHIMURIUM, Strain/Indicator: TA98, Metabolic Activation: RAT, LIVER, S-9, AROCLOR 1254 (30%), Method: PREINCUBATION) “active; positive”; (Test System: AMES SALMONELLA TYPHIMURIUM, Strain/Indicator: TA100, Metabolic Activation: HAMSTER, LIVER, S-9, AROCLOR 1254 (30%), Method: PREINCUBATION) “active; positive”; (Test System: AMES SALMONELLA TYPHIMURIUM, Strain/Indicator: TA100, Metabolic Activation: NONE, Method: PREINCUBATION) “inactive; negative”; (Test System: AMES SALMONELLA TYPHIMURIUM, Strain/Indicator: TA100, Metabolic Activation: RAT, LIVER, S-9, AROCLOR 1254) “active; positive”. The mutagenic call was “active; positive” (Test System: AMES SALMONELLA TYPHIMURIUM, Strain/Indicator: TA100, Metabolic Activation: RAT, LIVER, S-9, AROCLOR 1254 (30%), Method: PREINCUBATION) and “active; positive” (Test System: AMES SALMONELLA TYPHIMURIUM, Strain/Indicator: TA100, Metabolic Activation: RAT, LIVER, S-9, AROCLOR 1254, Method: STANDARD PLATE).

For `Nc1cccc2c1Cc1ccccc1-2`, the mutagenic call is “active; positive” (Test System: AMES SALMONELLA TYPHIMURIUM, Strain/Indicator: TA98, Metabolic Activation: RAT, LIVER, S-9, AROCLOR 1254 (2 OR 4%), Method: STANDARD PLATE); “active; positive” (Test System: AMES SALMONELLA TYPHIMURIUM, Strain/Indicator: TA100, Metabolic Activation: RAT, LIVER, S-9, AROCLOR 1254 (4%), Method: STANDARD PLATE); “inactive; negative” (Test System: AMES SALMONELLA TYPHIMURIUM, Strain/Indicator: TA1535, Metabolic Activation: RAT, LIVER, S-9, AROCLOR 1254 (4%), Method: STANDARD PLATE); “active; positive” (Test System: AMES SALMONELLA TYPHIMURIUM, Strain/Indicator: TA1537, Metabolic Activation: RAT, LIVER, S-9, AROCLOR 1254 (4%), Method: STANDARD PLATE).

On to `O=C(N=c1sn(C(=O)c2cccc(Cl)c2)c2ccc([N+](=O)[O-])cc12)c1cccc(Cl)c1`, for which, under setting [1], the mutagenic call was “active; positive”.

Take `Nc1ccc(-c2ccc(N)c([N+](=O)[O-])c2)cc1`: the mutagenic call reads like this: (Test System: AMES SALMONELLA TYPHIMURIUM, Strain/Indicator: TA98(1,8-DNP6), Metabolic Activation: NONE, Method: STANDARD PLATE) “active; positive”; (Test System: AMES SALMONELLA TYPHIMURIUM, Strain/Indicator: TA98(1,8-DNP6), Metabolic Activation: S-9, Method: STANDARD PLATE) “active; positive”; under setting [2], “active; positive”; (Test System: AMES SALMONELLA TYPHIMURIUM, Strain/Indicator: TA98, Metabolic Activation: S-9, Method: STANDARD PLATE) “active; positive”; under setting [3], “inactive; negative”; under setting [1], “active; positive”.

With `COc1ccc([N+](=O)[O-])c2c(NCCCN(C)C)c3ccccc3nc12`, the mutagenic call is, setting by setting: under setting [2], “active; positive”; under setting [3], “inactive; negative”.
